According to patent US5728727A, “Antiosteoporotic compound” (American Home Products Corporation, priority 1996, dated 1998):
One block for each compound: values may come before it.

Columns and labels:
calcitonin receptor [1] = target: T1, calcitonin receptor (Rattus norvegicus, UniProt P32214); assay: binding to the calcitonin receptor (125I-salmon calcitonin displacement, rat renal plasma membrane); parameters: species or system rat (Sprague-Dawley)
T1 construct: Kidneys were removed and placed in ice cold saline; from tissue; host or cells: Sprague-Dawley rat kidney, renal plasma membrane
T1 sequence (P32214 25-479 isoform P32214-2 limits assumed): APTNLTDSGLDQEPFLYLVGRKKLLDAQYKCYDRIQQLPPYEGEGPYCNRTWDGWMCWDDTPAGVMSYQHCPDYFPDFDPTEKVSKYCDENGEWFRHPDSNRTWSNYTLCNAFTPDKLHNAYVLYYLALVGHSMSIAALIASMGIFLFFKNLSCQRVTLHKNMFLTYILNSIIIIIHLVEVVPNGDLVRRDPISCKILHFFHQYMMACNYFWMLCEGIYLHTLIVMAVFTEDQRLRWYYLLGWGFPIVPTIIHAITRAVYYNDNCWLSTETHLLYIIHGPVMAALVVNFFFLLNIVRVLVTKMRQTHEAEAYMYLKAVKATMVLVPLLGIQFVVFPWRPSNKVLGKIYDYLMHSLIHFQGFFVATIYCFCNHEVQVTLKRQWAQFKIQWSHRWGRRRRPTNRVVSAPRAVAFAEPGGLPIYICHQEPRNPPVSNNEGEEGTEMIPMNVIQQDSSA
Protocol: The first in vitro standard pharmacological test procedure measures the ability of the compound to be evaluated to bind to the calcitonin receptor. The following describes the procedure used and the results obtained.
Adult female or male Sprague-Dawley rats (250-350 gm), were euthanized by CO2 asphyxiation. Kidneys were removed and placed in ice cold saline; all subsequent procedures were carded out at 4° C. Kidneys were decapsulated and coarsely minced with scissors. […]
Samples were incubated for 1 hour at room temperature. […] The filters were counted for a period of 2 minutes per sample utilizing an LKB Betaplate Reader.

calcitonin receptor [2] = target: T2, calcitonin receptor (Homo sapiens, UniProt P30988); assay: calcitonin agonist test: cAMP generation in T-47D cells; assay type: cell-based; details: for cAMP: basal 1
T2 construct: host or cells: T-47D
T2 sequence (P30988 25-474): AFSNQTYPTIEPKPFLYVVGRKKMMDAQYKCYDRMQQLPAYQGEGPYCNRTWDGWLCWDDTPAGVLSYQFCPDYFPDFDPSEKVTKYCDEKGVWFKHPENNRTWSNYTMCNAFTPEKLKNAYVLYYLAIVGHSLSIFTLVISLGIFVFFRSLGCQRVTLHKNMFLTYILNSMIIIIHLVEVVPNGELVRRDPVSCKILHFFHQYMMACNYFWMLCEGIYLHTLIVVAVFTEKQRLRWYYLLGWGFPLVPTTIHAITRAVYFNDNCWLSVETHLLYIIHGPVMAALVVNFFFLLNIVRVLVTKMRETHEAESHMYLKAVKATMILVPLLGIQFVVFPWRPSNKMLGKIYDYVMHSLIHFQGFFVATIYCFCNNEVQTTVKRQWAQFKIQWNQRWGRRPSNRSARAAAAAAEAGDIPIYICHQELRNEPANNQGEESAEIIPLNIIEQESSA
Description: The second in vitro standard pharmacological test procedure determines the ability of the compound to be evaluated to act as a calcitonin agonist, by measuring the levels of cAMP produced in response to the test compound. The following briefly describes the procedure used and the results obtained.
cAMP was generated in T-47D cells (a human mammary carcinoma cell line available from the American Type Culture Collection, Rockville, Md., USA) according to the following procedure. […] After the incubation was completed, the growth medium was aspirated from the cells in the plate.
Fifty ul of antiserum was added to all wells with the exception of the non-specific binding wells (NSB). Fifty ul of the SPA anti-rabbit reagent was added to all wells.
Intracellular cAMP levels in the T-47D cells following salmon calcitonin stimulation for 10 rain at 37° C. are as follow: […]

osteoclasts = assay: inhibition of bone resorption by osteoclasts (pits excavated per bone slice); assay type: cell-based; details: Osteoclast, neonatal rat osteoclasts on bovine cortical bone slices, 24 h
Protocol: Briefly, osteoclasts were isolated from neonatal rat long bones by mincing the bones in Medium 199 containing Hank's salts (3 ml per 10 bones from each of 5 animals). Osteoclasts were dislodged from the bone fragments by aspirating the bone fragments 50 times into and out of a transfer pipette. 100 μl of the resulting cell suspension from each animal was then plated onto each of 3 (per dose) 4.4 mm^2 slices of devitalized bovine femoral cortical bone that had been placed in the wells of a 96 well plate and pre-wetted with 100 μl of the medium. The osteoclasts were then allowed to adhere for 25 minutes at 37° C. The slices, with adherent osteoclasts, were then rinsed in 5 ml of medium to remove non-adherent cells. The slices were then transferred to Medium 199 containing Earle's salts with only 0.7 g/L NaHCO3 (to ensure that the medium equilibrates to a pH of 6.8-7.1 in a 5% CO2 atmosphere) and 10% heat-inactivated fetal bovine serum. […] The excavations (pits) made by the osteoclasts in the surface of the bone were visualized by staining with 1% toluidine blue for 3 minutes and bone resorption quantified microscopically by counting the number of pits excavated per slice.

[3] = effect on serum calcium levels in young growing rats; assay type: in vivo, rat; parameters: Serum Calcium: unit not given here; details: for Serum Calcium: mean
Protocol: {5R*-[6R*, 7S*, 8R*, 9R*, 12S*, 16S*, 18S*, 19S*, (13E)]} 4, 7, 19-Trihydroxy-2, 6, 8, 12, 12, 14, 16, 18-heptamethyl-6, 7, 8, 9, 10, 11, 12, 15, 16, 17, 18, 19-dodecahydro-1, 19:5, 9-diepoxybenzocyclooctadecen-3(5H)-one was also evaluated in an in vivo standard pharmacological test procedure that measures the effect of the test compound on serum calcium levels. Agents that inhibit bone resorption, such as calcitonin, regulate circulating calcium levels by inhibiting osteoclast mediated osteolysis and thereby inhibit the release of calcium from bone. The decrease in serum calcium levels following drug treatment indicates bone sparing activity. Calcitonin acts on specific membrane receptors of the bone resorbing osteoclast cells eliciting second messenger events such as increased cAMP generation that leads to inhibition of the cell's motility and inhibition of its bone resorbing functional activity. If bone turnover activity is high, such as in the young growing rat, this rapid inhibition in bone resorption is reflected by a transient decrease in circulating calcium. […] Young adult male rats weighing 160-170 g were held for at least 72 hours after receipt to acclimatize to colony conditions and then were randomly assigned to groups of 5-7 rats/group for treatment. The rats were administered vehicle or test compound, and at intervals between 0.5 and 3 hours after dosing, 1.0 ml of blood was collected from each rat under ketamin/acepromazine anesthesia via tail artery or (terminal via) cardiac puncture. Serum was evaluated for total calcium using a NOVA 7+7 blood analyzer.
In this standard pharmacological test procedure, all animals were dosed at 0 hours. For animals treated with the compound of Formula I, animals were bled sequentially. For animals treated with salmon calcitonin and untreated normal animals, a different group was used at each time point.

inhibition of the binding of calcitonin to the calcitonin receptor (in words) (calcitonin receptor [1]): competitively inhibited | IC50 (calcitonin receptor [1]; 1 hour at room temperature): 20.5 µM | EC50 (calcitonin receptor [2]; 10 min at 37° C., 10 μM IBMX, read-out: EC50, cAMP production (converted)): 0.616 µM | calcitonin agonist activity (in words) (calcitonin receptor [2]; cAMP): potent calcitonin agonist | IC50 (osteoclasts): 0.8 µg/mL
Compound: CC1=C2O[C@]3(O)C=C2C(=C(O)C1=O)[C@@H]1O[C@H](CC[C@H](C)/C=C(\C)C[C@@H](C)C[C@@H]3C)[C@H](C)[C@H](O)[C@H]1C (relative stereo) [Formula I, {5R*-[6R*, 7S*, 8R*, 9R*, 12S*, 16S*, 18S*, 19S*, (13E)]} 4,7, 19-Trihydroxy-2,6,8, 12, 12, 14, 16, 18-heptamethyl-6,7,8,9, 10, 11, 12, 15, 16, 17, 18, 19-dodecahydro-1, 19:5,9-diepoxybenzocyclooctadecen-3(5H)-one]
Serum Calcium ([3]; 10 mg/kg, i.p., 0.5 hours, normals 10.92): 10.73 | Serum Calcium ([3]; 10 mg/kg, i.p., 1.5 hours, normals 10.88, p < 0.01): 10.21 | Serum Calcium ([3]; 10 mg/kg, i.p., 3.0 hours, normals 10.40, p < 0.01): 9.99 | Serum Calcium ([3]; 30 mg/kg, i.p., 0.5 hours, normals 10.92): 10.60 | Serum Calcium ([3]; 30 mg/kg, i.p., 1.5 hours, normals 10.88, p < 0.05): 10.43 | Serum Calcium ([3]; 30 mg/kg, i.p., 3.0 hours, normals 10.40): 10.18 | Serum Calcium ([3]; 100 mg/kg, i.p., 0.5 hours, normals 10.92, p < 0.01): 10.29 | Serum Calcium ([3]; 100 mg/kg, i.p., 1.5 hours, normals 10.88, p < 0.01): 10.19 | Serum Calcium ([3]; 100 mg/kg, i.p., 3.0 hours, normals 10.40, p < 0.05): 10.06 | reduction of serum calcium levels (in words) ([3]; young growing rats, summary statement): significantly reduced serum calcium levels

Compound: Salmon Calcitonin
cAMP (calcitonin receptor [2]; calcitonin 0.0001 nM, 10 min at 37° C.): 2 pmol/mL | cAMP (calcitonin receptor [2]; calcitonin 0.001 nM, 10 min at 37° C.): 13 pmol/mL | cAMP (calcitonin receptor [2]; calcitonin 0.01 nM, 10 min at 37° C.): 105 pmol/mL | cAMP (calcitonin receptor [2]; calcitonin 0.1 nM, 10 min at 37° C.): > 640 pmol/mL | Serum Calcium ([3]; 5 IU/rat, s.c., 0.5 hours, normals 10.92, p < 0.01): 8.17 | Serum Calcium ([3]; 5 IU/rat, s.c., 1.5 hours, normals 10.88, p < 0.01): 7.45 | Serum Calcium ([3]; 5 IU/rat, s.c., 3.0 hours, normals 10.40, p < 0.01): 6.65
